# Results: patent US12180139B2, “Method for preparing aminoalkanoic acid derivative containing biphenyl group” (AMTIXBIO CO., LTD., priority 2019, dated 2024)
# Tests used:
# B. coagulans (+) = assay: Antibacterial MIC test (CLSI); assay type: cell-based; conditions: MHB liquid medium, 37° C., 24 hours
# Protocol: (§1) The MIC test was conducted in accordance CLSI guidelines. […] As a positive control, Nofloxacin and Vancomycin were used.
# B. cereus (+) = assay: Antibacterial MIC test (CLSI); assay type: cell-based; conditions: MHB liquid medium, 37° C., 24 hours
# Protocol: as §1
# B. subtilis (+) = assay: Antibacterial MIC test (CLSI); assay type: cell-based; conditions: MHB liquid medium, 37° C., 24 hours
# Protocol: as §1
# L. monocytogenes (+) = assay: Antibacterial MIC test (CLSI); assay type: cell-based; conditions: MHB liquid medium, 37° C., 24 hours
# Protocol: as §1
# P. acnes (+) = assay: Antibacterial MIC test (CLSI); assay type: cell-based; conditions: MHB liquid medium, 37° C., 24 hours
# Protocol: as §1
# S. aureus enterica (−) = assay: Antibacterial MIC test (CLSI); assay type: cell-based; conditions: MHB liquid medium, 37° C., 24 hours
# Protocol: as §1
# E. coli (−) = assay: Antibacterial MIC test (CLSI); assay type: cell-based; conditions: MHB liquid medium, 37° C., 24 hours
# Protocol: as §1
# M. luteus (+) = assay: Antibacterial MIC test (CLSI); assay type: cell-based; conditions: MHB liquid medium, 37° C., 24 hours
# Protocol: as §1
# C. albicans = conditions: RPMI1640 broth, 35° C., 48 hours, visual reading; expressed as a range value
# Protocol: (§3) An in vitro antifungal susceptibility test was performed in accordance with the US Clinical and Laboratory Standards Institute (CLSI) guidelines to measure the degree of antifungal activity of the compounds synthesized in the Preparation Examples against opportunistic pathogenic fungi. […] The MIC value (μg/ ? ) is expressed as a range value. Specifically, Candida species and Cryptococcus neoformans were incubated in a Sabouraud dextrose agar (SDA) (Sigma-Aldrich) solid medium for 24 and 48 hours, respectively to obtain single colonies. The obtained single colonies were suspended in 0.85% physiological saline to prepare fungal cell suspension (1 to 5×10^6 cells/ ? ). Fungal cells 2000-fold diluted in RPMI1640 broth (Sigma-Aldrich) were seeded on 96-well plates (5×10^2 to 2.5×10^3 cells/ ? , 195 ? /well). Serial two-fold dilutions (128, 64, 32, 16, 8, 4, 2, 1, and 0.5 μg/ ? ) of compounds were prepared by diluting the compounds synthesized according to the above preparation examples. Then, 5 ? from each dilution was added to the well of the 96-well plate containing fungal cell suspension to give a final suspension of 200 ? per well. […] As a positive control, amphotericin B (AMB), which is highly toxic to the human body but is known as a representative antifungal agent, was used.
# C. neoformans = conditions: RPMI1640 broth, 35° C., 72 hours, visual reading; expressed as a range value
# Protocol: as §3
# C. glabrata = conditions: RPMI1640 broth, 35° C., 48 hours, visual reading; expressed as a range value
# S. aureus (+) = conditions: MHB liquid medium, 37° C., 24 hours
# Protocol: (§2) The antibacterial activities against Gram-positive bacteria, Gram-negative bacteria or multi-drug resistant bacteria were evaluated for the compounds of the present invention. The MIC test was conducted in accordance CLSI guidelines. E. coli(−), P. aeruginosa(−), and S. enterica(−) were used as Gram-negative bacteria, B. cereus(+), B. subtilis(+), B. coagulans(+), L. monocytogenes(+), M. luteus(+), P. acnes(+), S. epidermidis(+), and S. aureus(+) were used as Gram-positive bacteria. Methicillin-resistant Staphylococcus aureus (MRSA) was used as multi-drug resistant bacteria. The bacterial cells were incubated until the OD600 of the single colonies reached 0.1. […] Subsequently, bacterial cells were incubated at 37° C. for 24 hours, and then the MICs (μg/ ? ) were determined by visual reading and optical density detection at 600 nm (OD600). As a positive control, Nofloxacin and Vancomycin were used.
# S. epidermidis (+) = conditions: MHB liquid medium, 37° C., 24 hours
# Protocol: as §2
# A. fumigatus = conditions: visual reading; expressed as a range value
# MRSA = assay: Antibacterial MIC test (CLSI); assay type: cell-based, Methicillin-resistant Staphylococcus aureus; conditions: MHB liquid medium, 37° C., 24 hours
# Protocol: as §1
SMILES,MIC B. coagulans (+) (B. coagulans (+)),MIC B. cereus (+) (B. cereus (+)),MIC B. subtilis (+) (B. subtilis (+)),MIC L. monocytogenes (+) (L. monocytogenes (+)),MIC P. acnes (+) (P. acnes (+)),MIC S. aureus enterica (−) (S. aureus enterica (−)),MIC E. coli (−) (E. coli (−)),MIC M. luteus (+) (M. luteus (+)),MIC (μg/mL) C. albicans (C. albicans),MIC (μg/mL) C. neoformans (C. neoformans),MIC (μg/mL) C. glabrata (C. glabrata),MIC S. aureus (+) (S. aureus (+)),MIC S. epidermidis (+) (S. epidermidis (+)),MIC (μg/mL) A. fumigatus (A. fumigatus),MIC MRSA (MRSA)
"CCC(N)C(=O)Nc1ccc(-c2ccc(Cl)c(Cl)c2)cc1.Cl (racemic) [Compound 29, (R)/(S)-2-amino-N-(3′,4′-dichloro-[1,1′-biphenyl]-4-yl)butanamide hydrochloride]",<4 µg/mL,8 µg/mL,<4 µg/mL,<4 µg/mL,<4 µg/mL,8 µg/mL,8 µg/mL,<4 µg/mL,4~16 μg/mL,2~8 μg/mL,4~16 μg/mL,<4 µg/mL,<4 µg/mL,4~16 μg/mL,<4 µg/mL
"CCCC(N)C(=O)Nc1ccc(-c2ccc(Cl)c(Cl)c2)cc1.Cl (racemic) [Compound 30, (R)/(S)-2-amino-N-(3′,4′-dichloro-[1,1′-biphenyl]-4-yl)pentanamide hydrochloride]",8 µg/mL,32 µg/mL,16 µg/mL,16 µg/mL,16 µg/mL,>32 µg/mL,>32 µg/mL,,4~16 μg/mL,2~8 μg/mL,4~16 μg/mL,16 µg/mL,16 µg/mL,4~16 μg/mL,16 µg/mL
"CCCCC(N)C(=O)Nc1ccc(-c2ccc(Cl)c(Cl)c2)cc1.Cl (racemic) [Compound 31, (R)/(S)-2-amino-N-(3′,4′-dichloro-[1,1′-biphenyl]-4-yl)hexanamide hydrochloride]",<4 µg/mL,<4 µg/mL,<4 µg/mL,<4 µg/mL,<4 µg/mL,8 µg/mL,<4 µg/mL,<4 µg/mL,0.5~4 μg/mL,0.5~4 μg/mL,0.5~4 μg/mL,<4 µg/mL,<4 µg/mL,0.5~4 μg/mL,<4 µg/mL
"CCC(NC)C(=O)Nc1ccc(-c2ccc(Cl)c(Cl)c2)cc1.Cl (racemic) [Compound 33, (R)/(S)-N-(3′,4′-dichloro-[1,1′-biphenyl]-4-yl)-2-(methylamino)butanamide hydrochloride]",<4 µg/mL,16 µg/mL,8 µg/mL,<4 µg/mL,<4 µg/mL,16 µg/mL,8 µg/mL,<4 µg/mL,8~32 μg/mL,4~16 μg/mL,8~32 μg/mL,8 µg/mL,<4 µg/mL,8~32 μg/mL,<4 µg/mL
"CCCC(NC)C(=O)Nc1ccc(-c2ccc(Cl)c(Cl)c2)cc1.Cl (racemic) [Compound 34, (R)/(S)-N-(3′,4′-dichloro-[1,1′-biphenyl]-4-yl)-2-(methylamino)pentanamide hydrochloride]",<4 µg/mL,8 µg/mL,<4 µg/mL,<4 µg/mL,<4 µg/mL,32 µg/mL,8 µg/mL,<4 µg/mL,4~16 μg/mL,2~8 μg/mL,8~32 μg/mL,<4 µg/mL,<4 µg/mL,8~32 μg/mL,<4 µg/mL
"CCCCC(NC)C(=O)Nc1ccc(-c2ccc(Cl)c(Cl)c2)cc1.Cl (racemic) [Compound 35, (R)/(S)-N-(3′,4′-dichloro-[1,1′-biphenyl]-4-yl)-2-(methylamino)hexanamide hydrochloride]",<4 µg/mL,<4 µg/mL,<4 µg/mL,>64 µg/mL,<4 µg/mL,64 µg/mL,<4 µg/mL,<4 µg/mL,0.5~4 μg/mL,0.5~4 μg/mL,0.5~4 μg/mL,8 µg/mL,<4 µg/mL,0.5~4 μg/mL,<4 µg/mL
